# Test results reported in patent US7906709B2, “Methods for breeding glyphosate resistant plants and compositions thereof” (priority 2006, dated 2011).
# Legend:
# [1] = system: F2 population of rigid ryegrass; assay: Glyphosate sensitivity of F2 population (RxS intercross); type: in vivo, Lolium rigidum; details: of 400 F2 plants
# Protocol: Twenty uniform non-sprayed plants of the F1 progeny (R×S) are grown and pooled to allow intercrossing to generate F2. Seeds are harvested at maturity and grown as described previously. Glyphosate sensitivity is further evaluated in the F2 population. At the tillering stage, as described previously, 400 plants of the F2 population are sprayed with 0.125× glyphosate (the rate used to identify the sensitive parent). The number of sensitive plants (severely injured and dead) is recorded 3 to 4 WAT. The survivors are re-acclimated for another week and re-sprayed with 8× glyphosate (the rate used to identify the resistant parent). The number of survivors is recorded 3 to 4 WAT. […] Expected ratios in the F2 population between sensitive, intermediate, and the resistant are evaluated with the model of one or two genes involved in the inheritance of glyphosate resistance as discussed in, for example, Diggle and Neve in Herbicide Resistance and World Grains, S. B. Powles and D. L. Shaner, eds. CRC Press, Boca Raton, London, New York, Washington, D.C., pp. 61-99 (2001). Chi-square analyses are used to determine the most acceptable ratio for F2 segregation and the inheritance of the glyphosate resistance.
# [2] = system: Transformed Agrobacterium (glyphosate-resistant rigid ryegrass EPSPS); assay: Growth in M-9 media with glyphosate, transformed with resistant EPSPS; type: cell-based, Agrobacterium tumefaciens; details: 48 hours
# Protocol: The level of glyphosate resistance is assayed from resistant rigid ryegrass EPSPS-expressing Agrobacterium that are transformed with a DNA construct encoding the resistant EPSPS enzyme (SEQ. ID. NO. 16).
# An EPSPS gene (SEQ. ID. NO. 15) is obtained from glyphosate resistant rigid ryegrass. The EPSPS gene is ligated with the binary vector pFGC5941, a 11406 bp construct with kanamycin resistant gene, BAR gene as a selectable marker, and 35S Promoter. The ligation is cloned in pGEM vector and grown in LB broth. The plasmid from cloned pGEM is confirmed for the inserted EPSPS gene by PCR.
# The confirmed plasmid is transformed into Agrobacterium tumefaciens by “freeze thaw technique” using liquid nitrogen. The transformed Agrobacterium is grown in LB plated and maintained 28° C. for 72 h. Some colonies are grown in LB broth for 24 h and tested for the inserted EPSPS gene by PCR. The confirmed Agrobacterium is grown in 50 mL LB broth for 24 h. The Agrobacterium is centrifuged at 5000×g for 10 min, and the pellets are diluted with 2 mL 1.0 M CaCl2. At the same time, a wild-type Agrobacterium is also grown and extracted similar to the transformed Agrobacterium. The Agrobacterium solutions (10 μL) are grown in 50 mL media containing 1×M-9 salt media (SIGMA), 20 mM glucose, 2 mM MgSO4, and glyphosate at 0, 0.25, 0.5, 0.75, 1.0, 1.5, and 2 mM.
# The growth (indicated by Optical Density 600 nm) is measured after 48 hours.
# [3] = system: F1 progeny of R and S lines of California rigid ryegrass; assay: Glyphosate sensitivity of F1 progeny (RxS, SxR); type: in vivo, Lolium rigidum
# Source text: Cross-pollination is arranged in the greenhouse between one plant each of the R and S lines which have similar maturity. To prevent pollen contamination from un-wanted ryegrass, the plants are covered with transparent plastic. The likelihood of selfing is less than 3% as discussed in, for example, Thorogood, Perennial Ryegrass (Lolium perenne L.) in M. D. Casler and R. R. Duncan, eds. Turfgrass Biology, Genetics, and Breeding, John Wiley & Sons, Inc., pp. 75-105 (2003). About 500 seeds from both R and S plants are harvested at maturity and kept separately. F1 plants are grown and maintained similarly as previously described. The F1 progeny are evaluated for glyphosate sensitivity when the plants are 5 to 8 cm tall. Glyphosate is sprayed at 0.125×, 0.5×, 0.25×, 1×, 2×, 4×, 6×, and 8× and the spray solutions prepared and delivered as described previously. The response of 10 plants in each of two experiments to glyphosate is recorded 3 and 4 WAT.
# [4] = system: F1 hybrid of perennial ryegrass and glyphosate resistant rigid ryegrass; assay: Glyphosate sensitivity of F1 hybrid population; type: in vivo, Lolium perenne x Lolium rigidum; details: 50 plants, 3 weeks after treatment
# Protocol: The R biotype of California rigid ryegrass, which survived 8× glyphosate and perennial ryegrass, which died from 0.25× of glyphosate, are grown individually in 950-ml pots with professional planting mix media as discussed above. Plants are maintained in greenhouse with supplemental light, watered daily, and fertilized weekly with NPK water soluble fertilizer (20-20-20). At the mature vegetative stage, perennial ryegrass plants are vernalized in the growth chamber with the temperature 4 ±1 C, 8 h day and 16 h night. After 4 weeks vernalization, the plants are removed and maintained in greenhouse until flowering.
# Seed heads of perennial ryegrass are designated to be pollinated by California rigid ryegrass also vice-verse because both of the species are allogamus plants. Both are known to be self-incompatible. After the emergence of seed heads and before the pollen opened, one plant from each species is isolated in one room of greenhouse. To provide conditions for cross-pollination, perennial ryegrass and rigid ryegrass plants are placed next to each other. During the pollination period, plants are maintained regularly as mentioned previously until the seed reached the maturity. The successful hybridization is indicated with the full development of mature seeds which had brown color. Seeds are harvested from both perennial and rigid ryegrass. Seeds from perennial ryegrass hybrids are used for further evaluation.
# Seeds of the F1 hybrid harvested from perennial ryegrass are grown and maintained as individual plants in the greenhouse as described previously. At the tillering stage, 50 plants for each of glyphosate rates (0.25, 0.5, 1.0, 1.5, 2.0, 4.0, and 8×, where x=1.12 kg ha^−1) are evaluated for sensitivity or resistance. Glyphosate is delivered in 187 L ha^−1 spray solutions with 172.5 kPa pressure using a flat fan nozzle. The dead or survivors in each treatment are counted 3 weeks after treatment and the plants with the highest level of resistance are further maintained and intercrossed to generate F2.
# [5] = Glyphosate 0.25 kg ha^-1 as headed
# [6] = Glyphosate 0.50 kg ha^-1 as headed
# [7] = Glyphosate 1 kg ha^-1 as headed
# [8] = Glyphosate 4 kg ha^-1 as headed
# [9] = Glyphosate 8 kg ha^-1 as headed
structure (smiles),measurement,setting,value
"O=C(O)CNCP(=O)(O)O [glyphosate, N-(phosphonomethyl) glycine]","Sensitive plants (died from 0.125× glyphosate), observed","[1]; 0.125× glyphosate, 3 to 4 WAT",27 plants
same,"Intermediate plants (0.125x-8x), observed",[1]; between 0.125× and 8× glyphosate,352 plants
same,"Resistant plants (survived 8× glyphosate), observed","[1]; re-sprayed with 8× glyphosate, 3 to 4 WAT",21 plants
same,"Growth, OD 600 nm",[2]; glyphosate 0.25 mM,0.632
same,"Growth, Percent",[2]; glyphosate 0.25 mM,98%
same,"Growth, OD 600 nm",[2]; glyphosate 0.50 mM,0.185
same,"Growth, Percent",[2]; glyphosate 0.50 mM,29%
same,"Growth, OD 600 nm",[2]; glyphosate 0.75 mM,0.097
same,"Growth, Percent",[2]; glyphosate 0.75 mM,15%
same,"Growth, OD 600 nm",[2]; glyphosate 1.00 mM,0.025
same,"Growth, Percent",[2]; glyphosate 1.00 mM,4%
same,"Growth, OD 600 nm",[2]; glyphosate 1.50 mM,0.024
same,"Growth, Percent",[2]; glyphosate 1.50 mM,4%
same,"Growth, OD 600 nm",[2]; glyphosate 2.00 mM,0.02
same,"Growth, Percent",[2]; glyphosate 2.00 mM,3%
same,injury,"[3]; 2× glyphosate, 4 WAT",20-30%
same,recovery from injury,"[3]; 2× glyphosate, after 5 weeks",full recovery
same,highest glyphosate rate survived,[3]; F1 progeny (RxS) and (SxR),up to 2 ×
same,effect on F1 plants,[3]; glyphosate at 4× and higher rates,killed
same,Severely injured and dead,[4]; [5],0%
same,Survivors,[4]; [5],100%
same,Severely injured and dead,[4]; [6],6%
same,Survivors,[4]; [6],94%
same,Severely injured and dead,[4]; [7],10%
same,Survivors,[4]; [7],90%
same,Survivors,[4]; Glyphosate 2 kg ha^-1 as headed (2× in text),90%
same,Survivors,"[4]; Glyphosate 2 kg ha^-1 as headed (2× in text), listed as Glyphosate",90**) Percent
same,Severely injured and dead,[4]; Glyphosate 2 kg ha^-1 as headed,10%
same,Severely injured and dead,[4]; [8],100%
same,Survivors,[4]; [8],0%
same,Severely injured and dead,[4]; [9],100%
same,Survivors,[4]; [9],0%
